The values that follow come from publication PMC6606611, “A comparative analysis of secreted protein disulfide isomerases from the tropical co-endemic parasites Schistosoma mansoni and Leishmania major” (Scientific Reports, 2019).

The target in one assay is T1, SmERp60 (Schistosoma mansoni, UniProt P38658).
T1 construct: recombinant, GST tag cleaved
T1 sequence (P38658 15-484): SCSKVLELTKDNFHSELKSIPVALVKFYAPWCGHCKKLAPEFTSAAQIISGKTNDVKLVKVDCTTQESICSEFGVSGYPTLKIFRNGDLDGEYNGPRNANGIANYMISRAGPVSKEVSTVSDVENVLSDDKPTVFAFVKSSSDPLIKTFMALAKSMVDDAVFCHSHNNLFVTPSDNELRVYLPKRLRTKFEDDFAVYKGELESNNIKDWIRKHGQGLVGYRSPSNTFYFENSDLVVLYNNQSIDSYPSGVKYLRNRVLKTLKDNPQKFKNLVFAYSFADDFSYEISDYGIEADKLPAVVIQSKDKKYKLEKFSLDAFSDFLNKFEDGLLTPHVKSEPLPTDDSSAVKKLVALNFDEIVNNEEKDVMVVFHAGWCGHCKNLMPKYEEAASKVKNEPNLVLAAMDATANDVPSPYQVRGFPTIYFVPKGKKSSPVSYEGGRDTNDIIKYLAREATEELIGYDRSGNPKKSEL
The assay is described as follows: fluorimetric di-eosin-GSSG disulfide reductase assay, […] protein. The class given is biochemical.

The next assay concerns the target T2, LmPDI (Leishmania major, UniProt Q8I8E1).
T2 construct: gene pdi; recombinant, N-terminal cleavable His-FLAG tag
The assay is described as above. The class given is biochemical.

The target of a further assay is T3, HsPDIA3/ERp57 (Homo sapiens, UniProt P30101).
T3 construct: gene PDIA3
In words: biochemical.

The structures appear in SMILES notation.

T2 sequence (Q8I8E1 entry or part of it): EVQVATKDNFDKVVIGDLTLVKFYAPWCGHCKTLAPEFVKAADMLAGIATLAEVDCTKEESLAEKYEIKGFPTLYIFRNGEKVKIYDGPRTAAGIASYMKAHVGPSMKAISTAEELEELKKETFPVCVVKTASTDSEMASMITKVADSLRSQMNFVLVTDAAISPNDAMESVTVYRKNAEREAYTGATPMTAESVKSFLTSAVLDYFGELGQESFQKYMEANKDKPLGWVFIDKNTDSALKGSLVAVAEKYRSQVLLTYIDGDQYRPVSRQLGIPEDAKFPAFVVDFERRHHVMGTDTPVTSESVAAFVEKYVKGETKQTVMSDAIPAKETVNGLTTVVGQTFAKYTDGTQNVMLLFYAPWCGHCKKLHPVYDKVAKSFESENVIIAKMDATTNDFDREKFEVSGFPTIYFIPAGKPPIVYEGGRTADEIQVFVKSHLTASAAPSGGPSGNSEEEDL
T3 sequence (P30101 25-505): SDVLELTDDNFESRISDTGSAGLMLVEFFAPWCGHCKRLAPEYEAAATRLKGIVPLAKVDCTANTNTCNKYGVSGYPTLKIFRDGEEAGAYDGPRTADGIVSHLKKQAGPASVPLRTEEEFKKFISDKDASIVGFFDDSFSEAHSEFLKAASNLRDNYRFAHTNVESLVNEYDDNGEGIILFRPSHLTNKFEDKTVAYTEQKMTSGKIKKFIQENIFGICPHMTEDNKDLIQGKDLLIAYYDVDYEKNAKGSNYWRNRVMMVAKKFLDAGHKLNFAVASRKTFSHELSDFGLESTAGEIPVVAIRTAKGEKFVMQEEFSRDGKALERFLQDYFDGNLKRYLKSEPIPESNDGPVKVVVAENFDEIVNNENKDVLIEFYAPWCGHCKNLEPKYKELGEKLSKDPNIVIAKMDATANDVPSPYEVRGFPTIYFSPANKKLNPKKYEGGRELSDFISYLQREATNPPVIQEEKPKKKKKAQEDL

By IC50 is commonly meant the point on the concentration scale where inhibition reaches its midpoint. High values mean weaker potency, low ones greater potency. With `COc1cc([C@H]2Oc3cc([C@H]4Oc5cc(O)cc(O)c5C(=O)[C@@H]4O)ccc3O[C@@H]2CO)ccc1O` [silibinin A], the IC50 against SmERp60 was 750 nM.
As to `O=C1O[C@H]2[C@@H]3OC(=O)c4cc(O)c(O)c(O)c4-c4c(O)c(O)c5oc(=O)c6c(c(O)c(O)c7oc(=O)c4c5c76)-c4c(cc(O)c(O)c4O)C(=O)OC[C@H]3OC(O)[C@@H]2OC(=O)c2cc(O)c(O)c(O)c2-c2c1cc(O)c(O)c2O` (mixture of isomers) [punicalagin], the IC50 on LmPDI stood at 7300 nM; on HsPDIA3/ERp57, 500 nM.
